Test results published in article PMC9919699, “A Comprehensive Approach to Derivatization: Elemental Composition, Biochemical, and In Silico Studies of Metformin Derivatives Containing Copper and Zinc Complexes” (Molecules, 2023).
Where two headings read alike, the source gives them in different places.

Experiments:
α-glucosidase = α-glucosidase enzyme inhibition assay (starch substrate, anthrone reagent, 640 nm); type: biochemical
Method: The α-glucosidase-inhibitory activity of all derivatives of metformin was tested using the method previously described. Three test tubes were marked as test (T), blank (B), and control (C). Then, 200 µL of substrate (starch) and enzyme (α-glucosidase) was added to test tubes T and C. The contents were mixed well, and then the test tubes were incubated at 37 °C for 30 min. After incubation, trichloroacetic acid was added to all test tubes, which were then centrifuged for 10 min. Free glucose was available after the reaction with anthrone reagent (1.5 mL). The contents in the test tubes were boiled for 15 min, and the absorbance was read at a wavelength at 640 nm. The percentage inhibition was calculated using the following formula:Percentage inhibition = OD of control − OD of test tube/OD of control × 100.

α-amylase = α-amylase enzyme inhibition assay (starch, dinitro-salicylic acid, 540 nm); type: biochemical
Method: All derivatives of metformin were analyzed for serum amylase inhibitory activity using the Yukihoko Hara method. Three test tubes were labeled as blank (B), test (T), and control (C). Then, 2.5 mL of phosphate buffer (pH 6.8) was added to each test tube. Next, 1 mL of starch and 1 mL of 2 N sodium chloride solution were added to each test tube. The test tubes were incubated at 37 °C for 10 min. After incubation, 0.5 mL of derivatives was added to test tube T, followed by 0.2 mL of enzyme (α-amylase). All contents were mixed well, and then the tube was incubated at 37 °C for 10 min. In the control test tube, normal saline (2 N), starch solution (1 mL), and enzyme solution (0.2 mL) were added before incubating at 37 °C for 10 min. In the blank test tube, only 5.7 mL of distilled water was added. Dinitro-salicylic acid (0.2 mL) was added to all test tubes. The contents were mixed well, and the test tubes were kept in a boiling water bath for 15 min. The intensity of reddish orange was read at 540 nm. The percentage inhibitory action of serum amylase was calculated using the following formula:Percentage inhibition = OD of control − OD of test tube/OD of control × 100.

[1] = 250 µg/mL, Table 5 (MCu series)
[2] = 250 µg/mL, Table 6 (MZn series)
[3] = 500 µg/mL, Table 5 (MCu series)
[4] = 500 µg/mL, Table 6 (MZn series)
[5] = 1000 µg/mL, Table 5 (MCu series)
[6] = 1000 µg/mL, Table 6 (MZn series)
[7] = 250 µg/mL, Table 8 (MCu series)
[8] = 250 µg/mL, Table 9 (MZn series)
[9] = 500 µg/mL, Table 8 (MCu series)
[10] = 500 µg/mL, Table 9 (MZn series)
[11] = 1000 µg/mL, Table 8 (MCu series)
[12] = 1000 µg/mL, Table 9 (MZn series)
[13] = Table 5 (MCu series), read-out: IC50
[14] = Table 8 (MCu series), read-out: IC50
[15] = Table 6 (MZn series), read-out: IC50
[16] = Table 9 (MZn series), read-out: IC50

`C[C@H]1O[C@H](O[C@H]2[C@H](O)[C@@H](O)[C@@H](O[C@H]3[C@H](O)[C@@H](O)C(O)O[C@@H]3CO)O[C@@H]2CO)[C@H](O)[C@@H](O)[C@@H]1N[C@H]1C=C(CO)[C@@H](O)[C@H](O)[C@H]1O` (stereo partly drawn) [Acarbose, reference compound] was tested, and the “% Inhibition” value (α-glucosidase; 250 µg/mL, Table 4 (Met series)) was 41.84 ± 0.08%, the “% Inhibition” value (α-glucosidase; [1]) was 42.65 ± 0.09% and the “% Inhibition” value (α-glucosidase; [2]) was 54.12 ± 0.09%. The “% Inhibition” value (α-glucosidase; 500 µg/mL, Table 4 (Met series)) was 66.79 ± 0.09%, the “% Inhibition” value (α-glucosidase; [3]) was 62.41 ± 0.28% and the “% Inhibition” value (α-glucosidase; [4]) was 74.52 ± 0.19%. For the same compound, the “% Inhibition” value (α-glucosidase; 1000 µg/mL, Table 4 (Met series)) was 89.01 ± 0.01%, the “% Inhibition” value (α-glucosidase; [5]) was 91.83 ± 0.18% and the “% Inhibition” value (α-glucosidase; [6]) was 98.60 ± 0.10%. The “% Inhibition” value (α-amylase; 250 µg/mL, Table 7 (Met series)) was 49.65 ± 0.15%, the “% Inhibition” value (α-amylase; [7]) was 42.73 ± 0.46% and the “% Inhibition” value (α-amylase; [8]) was 49.59 ± 0.34%. For the same compound, the “% Inhibition” value (α-amylase; 500 µg/mL, Table 7 (Met series)) was 72.33 ± 0.20%, the “% Inhibition” value (α-amylase; [9]) was 67.52 ± 0.34% and the “% Inhibition” value (α-amylase; [10]) was 72.73 ± 0.46%. The “% Inhibition” value (α-amylase; 1000 µg/mL, Table 7 (Met series)) was 91.58 ± 0.36%, the “% Inhibition” value (α-amylase; [11]) was 92.73 ± 0.46% and the “% Inhibition” value (α-amylase; [12]) was 91.71 ± 0.46%.
In the case of `CN(C)C(=N)NC(=N)N=Cc1ccccc1.CN(C)C(=N)NC(=N)N=Cc1ccccc1.O.O.O.O.O.O=S(=O)([O-])[O-].[Cu+2]` [MCu1], the IC50 (α-glucosidase) is reported as 421.7 µg/mL, the “% Inhibition” value (α-glucosidase; [1]) is reported as 44.24 ± 0.10% and the “% Inhibition” value (α-glucosidase; [3]) is reported as 61.46 ± 0.31%. The “% Inhibition” value (α-glucosidase; [5]) was 81.13 ± 0.08%, the IC50 (α-glucosidase; [13]) was 600 µM and the “% Inhibition” value (α-amylase; [7]) was 19.44 ± 0.46%. The “% Inhibition” value (α-amylase; [9]) was 43.71 ± 0.17%, the “% Inhibition” value (α-amylase; [11]) was 73.31 ± 0.51% and the IC50 (α-amylase; [14]) was 990 µM.
In the case of `CN(C)C(=N)NC(=N)N=Cc1ccccc1O.CN(C)C(=N)NC(=N)N=Cc1ccccc1O.O.O.O.O.O.O=S(=O)([O-])[O-].[Cu+2]` [MCu2], the “% Inhibition” value (α-glucosidase; [1]) is reported as 31.13 ± 0.04%, the “% Inhibition” value (α-glucosidase; [3]) is reported as 48.50 ± 0.22% and the “% Inhibition” value (α-glucosidase; [5]) is reported as 77.32 ± 0.17%. For the same compound, the “% Inhibition” value (α-amylase; [7]) was 29.52 ± 0.28%, the “% Inhibition” value (α-amylase; [9]) was 44.56 ± 0.34% and the “% Inhibition” value (α-amylase; [11]) was 77.56 ± 0.34%. The IC50 (α-amylase; [14]) was 790 µM.
`CN(C)C(=N)NC(=N)N=CC=Cc1ccccc1.CN(C)C(=N)NC(=N)N=CC=Cc1ccccc1.O.O.O.O.O.O=S(=O)([O-])[O-].[Cu+2]` [MCu3] was tested, and the “% Inhibition” value (α-glucosidase; [1]) was 29.74 ± 0.08%, the “% Inhibition” value (α-glucosidase; [3]) was 49.26 ± 0.17% and the “% Inhibition” value (α-glucosidase; [5]) was 78.23 ± 0.17%. For the same compound, the IC50 (α-glucosidase; [13]) was 570 µM, the “% Inhibition” value (α-amylase; [7]) was 25.41 ± 0.23% and the “% Inhibition” value (α-amylase; [9]) was 38.37 ± 0.40%. For the same compound, the “% Inhibition” value (α-amylase; [11]) was 69.40 ± 0.23% and the IC50 (α-amylase; [14]) was 790 µM.
`C=NC(=N)NC(=N)N(C)C.C=NC(=N)NC(=N)N(C)C.O.O.O.O.O.O=S(=O)([O-])[O-].[Cu+2]` [MCu4] was tested, and the “% Inhibition” value (α-glucosidase; [1]) was 18.64 ± 0.07%, the “% Inhibition” value (α-glucosidase; [3]) was 31.28 ± 0.08% and the “% Inhibition” value (α-glucosidase; [5]) was 51.20 ± 0.18%. The IC50 (α-glucosidase; [13]) was 500 µM, the “% Inhibition” value (α-amylase; [7]) was 19.48 ± 0.40% and the “% Inhibition” value (α-amylase; [9]) was 31.46 ± 0.23%. For the same compound, the “% Inhibition” value (α-amylase; [11]) was 48.32 ± 0.51% and the IC50 (α-amylase; [14]) was 300 µM.
For `CC(C)=NC(=N)NC(=N)N(C)C.CC(C)=NC(=N)NC(=N)N(C)C.O.O.O.O.O.O=S(=O)([O-])[O-].[Cu+2]` [MCu5], the “% Inhibition” value (α-glucosidase; [1]) was 21.73 ± 0.12%, the “% Inhibition” value (α-glucosidase; [3]) was 38.21 ± 0.18% and the “% Inhibition” value (α-glucosidase; [5]) was 56.45 ± 0.20%. The IC50 (α-glucosidase; [13]) was 460 µM, the “% Inhibition” value (α-amylase; [7]) was 12.46 ± 0.23% and the “% Inhibition” value (α-amylase; [9]) was 38.44 ± 0.40%. The “% Inhibition” value (α-amylase; [11]) was 61.38 ± 0.23% and the IC50 (α-amylase; [14]) was 320 µM.
With `CC(=NC(=N)NC(=N)N(C)C)c1ccccc1.CC(=NC(=N)NC(=N)N(C)C)c1ccccc1.O.O.O.O.O.O=S(=O)([O-])[O-].[Cu+2]` [MCu6] the “% Inhibition” value (α-glucosidase; [1]) was 10.74 ± 0.11%, the “% Inhibition” value (α-glucosidase; [3]) was 24.44 ± 0.15% and the “% Inhibition” value (α-glucosidase; [5]) was 53.44 ± 0.33%. For the same compound, the IC50 (α-glucosidase; [13]) was 290 µM, the “% Inhibition” value (α-amylase; [7]) was 23.34 ± 0.51% and the “% Inhibition” value (α-amylase; [9]) was 45.45 ± 0.28%. For the same compound, the “% Inhibition” value (α-amylase; [11]) was 64.65 ± 0.28% and the IC50 (α-amylase; [14]) was 320 µM.
In the case of `CN(C)C(=N)NC(=N)N=C(c1ccccc1)c1ccccc1.CN(C)C(=N)NC(=N)N=C(c1ccccc1)c1ccccc1.O.O.O.O.O.O=S(=O)([O-])[O-].[Cu+2]` [MCu7], the “% Inhibition” value (α-glucosidase; [1]) is reported as 29.47 ± 0.18%, the “% Inhibition” value (α-glucosidase; [3]) is reported as 37.37 ± 0.30% and the “% Inhibition” value (α-glucosidase; [5]) is reported as 48.29 ± 0.28%. For the same compound, the IC50 (α-glucosidase; [13]) was 320 µM, the “% Inhibition” value (α-amylase; [7]) was 15.37 ± 0.23% and the “% Inhibition” value (α-amylase; [9]) was 38.31 ± 0.46%. For the same compound, the “% Inhibition” value (α-amylase; [11]) was 55.43 ± 0.23% and the IC50 (α-amylase; [14]) was 200 µM.
In the case of `COc1cc(C=NC(=N)NC(=N)N(C)C)ccc1O.COc1cc(C=NC(=N)NC(=N)N(C)C)ccc1O.O.O.O.O.O.O=S(=O)([O-])[O-].[Cu+2]` [MCu8], the “% Inhibition” value (α-glucosidase; [1]) is reported as 41.50 ± 0.26%, the “% Inhibition” value (α-glucosidase; [3]) is reported as 67.35 ± 35% and the “% Inhibition” value (α-glucosidase; [5]) is reported as 83.14 ± 0.09%. The IC50 (α-glucosidase; [13]) was 720 µM, the IC50 (α-amylase) was 712.6 µg/mL and the “% Inhibition” value (α-amylase; [7]) was 42.68 ± 0.46%. The “% Inhibition” value (α-amylase; [9]) was 61.35 ± 0.51%, the “% Inhibition” value (α-amylase; [11]) was 84.35 ± 0.51% and the IC50 (α-amylase; [14]) was 900 µM.
`CN(C)C(=N)NC(=N)N=C(c1ccccc1)C(O)c1ccccc1.CN(C)C(=N)NC(=N)N=C(c1ccccc1)C(O)c1ccccc1.O.O.O.O.O.O=S(=O)([O-])[O-].[Cu+2]` (stereo not drawn) [MCu9] was tested, and the “% Inhibition” value (α-glucosidase; [1]) was 15.23 ± 0.12%, the “% Inhibition” value (α-glucosidase; [3]) was 28.37 ± 0.20% and the “% Inhibition” value (α-glucosidase; [5]) was 49.49 ± 0.25%. The IC50 (α-glucosidase; [13]) was 200 µM, the “% Inhibition” value (α-amylase; [7]) was 13.46 ± 0.23% and the “% Inhibition” value (α-amylase; [9]) was 34.66 ± 0.40%. The “% Inhibition” value (α-amylase; [11]) was 67.48 ± 0.40% and the IC50 (α-amylase; [14]) was 130 µM.
In the case of `CN(C)C(=N)NC(=N)N=Cc1ccccc1.CN(C)C(=N)NC(=N)N=Cc1ccccc1.O.O.O.O.O.O=S(=O)([O-])[O-].[Zn+2]` [MZn1], the “% Inhibition” value (α-glucosidase; [2]) is reported as 54.74 ± 0.15%, the “% Inhibition” value (α-glucosidase; [4]) is reported as 62.48 ± 0.19% and the “% Inhibition” value (α-glucosidase; [6]) is reported as 77.57 ± 0.20%. For the same compound, the IC50 (α-glucosidase; [15]) was 700 µM, the “% Inhibition” value (α-amylase; [8]) was 31.46 ± 0.34% and the “% Inhibition” value (α-amylase; [10]) was 55.54 ± 0.34%. For the same compound, the “% Inhibition” value (α-amylase; [12]) was 82.60 ± 0.40% and the IC50 (α-amylase; [16]) was 750 µM.
In the case of `CN(C)C(=N)NC(=N)N=Cc1ccccc1O.CN(C)C(=N)NC(=N)N=Cc1ccccc1O.O.O.O.O.O.O=S(=O)([O-])[O-].[Zn+2]` [MZn2], the “% Inhibition” value (α-glucosidase; [2]) is reported as 43.55 ± 0.20%, the “% Inhibition” value (α-glucosidase; [4]) is reported as 57.61 ± 0.15% and the “% Inhibition” value (α-glucosidase; [6]) is reported as 71.37 ± 0.30%. The IC50 (α-glucosidase; [15]) was 600 µM, the IC50 (α-amylase) was 484.9 µg/mL and the “% Inhibition” value (α-amylase; [8]) was 34.46 ± 0.23%. For the same compound, the “% Inhibition” value (α-amylase; [10]) was 69.32 ± 0.46%, the “% Inhibition” value (α-amylase; [12]) was 86.58 ± 0.40% and the IC50 (α-amylase; [16]) was 670 µM.
